Legend:
HGPS-iPSC SMCs [1] = assay: Cell detachment under arterial flow in microfluidic system (loss of function studies); format: cell-based, human; conditions: for HGPS-iPSC SMC detachment: both clones, arterial flow 20 dyne/cm^2, up to 12 days, MMP13 inhibitor 8 nM, BB-94 20 nM
Procedure: After 4 h, a confluent cell layer was formed, which was then perfused with SmGM-2 medium at physiological flow rate (20 dyne/cm^2). Unless specified, all tests were performed at day 0 and after 4 days on flow culture conditions. Cell number and cell clumps were determined on slides stained with DAPI (20×) and normalized by image area (0.3524 mm^2). Cell clumps areas were evaluated by Image J software.
In case of calcification inhibition studies, cells were treated with SmGM-2 medium containing sodium pyrophosphate (0.9 mM, Sigma), and in case of farnesyltrasferase inhibitor studies, cells were treated with SmGM-2 medium containing Tipifarnib (1 μM) or Lonafarnib (20 μM, Absouce Diagnostics). In MMP, calcification and farnesyltransferase inhibition studies, cells were perfused with medium containing the drug at a flow rate of 20 dyne/cm^2. Medium was changed every 7 days. Cell number and viability (Presto Blue assay) was monitored overtime. In case of MMP-13 inhibition studies, MMP activity was assessed at day 4, and the percentage of progerin positive cells and the expression of phosphatase alkaline were evaluated at day 7.
The complexation of siRNAs with lipofectamine was allowed to proceed for 40 min at room temperature. […] The culture media was changed after 72 h.

MMP-9 = MMP-9 (Homo sapiens, UniProt P14780); conditions: cited from earlier work
HOZ mSMCs = assay: Detachment of progeria mouse SMCs under flow shear stress; format: cell-based; conditions: flow conditions, media supplemented with inhibitor
Source text: Mice. Male^LmnaG609G/G609G, and wild-type were used (Osorio F G, Navarro C L, Cadinanos J, Lopez-Mejia I C, Quiros P M, Bartoli C, Rivera J, Tazi J, Guzman G, Varela I, Depetris D, de Carlos F, Cobo J, Andres V, De Sandre-Giovannoli A, Freije J M, Levy N, Lopez-Otin C. Splicing-directed therapy in a new mouse model of human accelerated aging. Science translational medicine. 2011;3:106ra107). Animal studies were approved by the local <<comité d'éthique pour l'expérimentation animale>> (Marseille Animal Care Commitee, Protocol n° 96-21122012) and conformed to the Directive 2010/63/EU of the European parliament regarding the protection of animals used for experimental and other scientific purposes. Mouse vSMCs (mSMC) were prepared from thoracic aortas of 6 or 18 week-old mice. Briefly, after fat tissue removal around aortic region, aorta was dissected from its origin to the proximity of the diaphragm. Aortas from two mice were put into HBSS 1×, on ice then rinse once in HBSS. Aorta were digested 10 minutes at 37° C. in enzyme solution freshly prepared the day of isolation (Collagenase 1 mg/ml, Soybean Trypsin inhibitor 1 mg/ml, elastase 0.744 units/ml—Worthington biochemical—, penicillin/streptomycin 1%, HBSS 1×). […] The loss of mSMC during time was assessed by the percentage of occupied area.
We also analyzed the effect of MMP13 and BB94 inhibition in HOZ mSMCs. […]

LmnaG609G/G609G mice = assay: In vivo treatment of progeria mice with BB-94; set-up: species or system mouse
Procedure: In vivo studies. 16 Lmna^G609G/G609G mice (male and female) were used. […] IP injections were used to administrate 30 mg/Kg/day of BB-94 in 3 mg/ml in PBS containing 0.01% Tween 80. The treatment was applied 5 times per week during 6 weeks (from week 5 to week 10). […] At the end of week 10 the mice were sacrificed and the selected parameters were evaluated.
Gene Expression Profiling using Fluidigm. Small parts of mice aortas were frozen to be analyzed. These parts were lysated and homogenized using a MagNA instrument and MagNA Lyser Green Beads (with 5 mm (diameter) stainless steel beads). Total RNA were then isolated and quantified. DELTAgene assays (FlexSix—Fluidigm) were designed for […] transcripts. The pre-amplification process was performed for 14 cycles in order to obtain sensitivity down to a single cDNA molecule. The oligos were synthesized by Sigma and dissolved at a concentration of 100 μM in water. For each assay a Primer Pair Mix was prepared containing 50 μM Forward Primer and 50 μM Reverse Primer. In order to prepare 10× Pre-amplification Primer Mix (500 nM each primer), 10 μL of each of the 96 Primer Pair Mixes (50 μM each primer) was mixed with […] buffer consisting of 10 mM Tris-HCl, pH 8.0; 0.1 mM EDTA; 0.25% Tween-20. In order to prepare 10× Assay (5 μM each primer) each Primer Pair Mix was diluted by mixing 10 μL Primer Pair Mix (50 μM each primer) with 90 μL buffer consisting of 10 mM Tris-HCl, pH 8.0; 0.1 mM EDTA; 0.25% Tween-20. A pre-mix containing cDNA and primers was done and treatment with exonuclease I was performed to remove non-hybridized primers. The Fluidigm® FLEXsix™ Gene expression IFC was used with EvaGreen chemistry. After a prime of the chip, a 10× assay mix and sample mix were prepared and pipetted into the inlets. The chip was loaded and data was collected using the BioMark HD™. Data was analyzed using Fluidigm® Real Time PCR Analysis v2.1 software.
So far no therapy has been developed to target specifically SMC loss. Most of the compounds identified so far in pre-clinical tests to treat progeria have been focused in the reduction of progerin quantities, by either reducing its production or increasing its degradation, in the reduction of progerin toxicity by targeting its aberrant prenylation, or identifying compounds capable of restoring pathological phenotypes downstream of progerin accumulation. Therefore we asked whether the inhibition of MMP13 in LmnaG609G/G609G mice could retard SMC loss. […] LmnaG609G/G609G mice (n=8 for treatment group and control group; age: 5 weeks) were IP injected 5 times a week (30 mg/Kg/day; 3 mg/mL in PBS). […] At this time point we evaluated SMC loss in the aortic arch.

MMP-7 = target: T1, MMP-7 (Homo sapiens, UniProt P09237); conditions: cited from earlier work
T1 sequence (P09237 95-267): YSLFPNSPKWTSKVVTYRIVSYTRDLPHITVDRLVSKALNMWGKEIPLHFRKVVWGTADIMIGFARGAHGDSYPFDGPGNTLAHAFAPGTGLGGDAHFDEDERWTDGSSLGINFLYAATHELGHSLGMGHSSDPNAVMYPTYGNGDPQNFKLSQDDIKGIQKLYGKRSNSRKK

HGPS-iPSC SMCs [2] = assay: Response to farnesyltransferase inhibitor: prelamin A and nuclear morphology by immunofluorescence; format: cell-based, human; conditions: one dose 1 μM, after 48 h
Procedure: To evaluate whether HGPS-iPSC SMCs could respond to farnesyltransferase inhibitors, as shown for other progeria cell models, cells were treated with one dose of Tipifarnib (1 μM) and after 48 h cells were characterized for the expression of prelamin A. As expected, HGPS-iPSC SMCs accumulate nuclear prelamin A (approximately 95% of the cells), as shown by immunofluorescence (FIG. 12).
Immunofluorescence analysis—In an embodiment, cells were washed with PBS, fixed with 4% paraformaldehyde (Electron Microscopy Sciences) for 15 min at room temperature and washed again with PBS. […] Binding of primary antibodies to specific cells was detected with anti-mouse IgG Cy3 (Sigma) or anti-rabbit IgG Cy3 (JacksonImmunoResearch). Cell nuclei were stained with 4′, 6′-diamidino-2-phenylindole (DAPI) (Sigma) and the slides examined with a regular (Zeiss) or high-content fluorescence microscope (IN Cell 2200, GE Healthcare). Image) software was used to quantify the overall intensity of each image, which was then normalized for cell number.

Chain of MMP-9 (P14780 94-707, species assumed): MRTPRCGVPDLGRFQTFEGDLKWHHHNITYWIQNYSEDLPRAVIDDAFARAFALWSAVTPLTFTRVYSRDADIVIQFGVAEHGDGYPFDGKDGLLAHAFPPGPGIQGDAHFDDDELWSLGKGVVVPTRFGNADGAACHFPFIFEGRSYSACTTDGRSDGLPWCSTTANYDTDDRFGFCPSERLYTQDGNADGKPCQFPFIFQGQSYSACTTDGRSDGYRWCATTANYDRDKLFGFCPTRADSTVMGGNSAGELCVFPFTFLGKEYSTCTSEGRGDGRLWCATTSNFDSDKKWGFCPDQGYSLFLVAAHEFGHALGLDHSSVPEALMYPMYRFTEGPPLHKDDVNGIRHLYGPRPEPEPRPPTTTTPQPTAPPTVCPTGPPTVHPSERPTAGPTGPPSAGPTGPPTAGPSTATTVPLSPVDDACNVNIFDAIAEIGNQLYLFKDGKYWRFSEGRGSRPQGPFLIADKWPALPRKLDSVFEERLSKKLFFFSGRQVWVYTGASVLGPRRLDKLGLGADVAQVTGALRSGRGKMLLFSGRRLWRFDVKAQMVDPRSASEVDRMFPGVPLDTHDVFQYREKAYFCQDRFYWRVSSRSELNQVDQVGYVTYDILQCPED

Q: With CNC(=O)[C@H](Cc1ccccc1)NC(=O)[C@H](CC(C)C)[C@H](CSc1cccs1)C(=O)NO [Batimastat, (2R,3S)-N4-Hydroxy-2-isobutyl-N1-[(2S)-1-(methylamino)-1-oxo-3-phenyl-2-propanyl]-3-[(2-thienylsulfanyl)methyl]succinamide] as the compound, how does the “HGPS-iPSC SMC detachment” value (HGPS-iPSC SMCs [1]) read?
A: decreased significantly the detachment

Q: What about the IC50 (MMP-9) of the same compound?
A: ≤ 20 nM

Q: And the “detachment of HOZ mSMCs” value (HOZ mSMCs)?
A: significantly delayed

Q: And the “solubility of the compound” value (LmnaG609G/G609G mice; 3 mg/mL in PBS, IP injection)?
A: low solubility

Q: What about the “number of SMCs in aortic arch” value (LmnaG609G/G609G mice; IP 30 mg/Kg/day, 5 times per week, 6 weeks, cell nuclei counting and qRT-PCR, versus untreated animals) of the same compound?
A: higher number of SMCs than untreated animals

Q: What about the “progerin in cells isolated from aortic arch” value (LmnaG609G/G609G mice; IP 30 mg/Kg/day, 6 weeks) of the same compound?
A: No evidence of decrease of progerin

Q: And the “intra-abdominal accumulation (precipitate)” value (LmnaG609G/G609G mice; IP 30 mg/Kg/day, treatment reduced from 10 to 6 weeks)?
A: intra-abdominal massive accumulation

Q: What about the IC50 (MMP-7) of the same compound?
A: ≤ 20 nM

Q: Which cellular detachment (HGPS-iPSC SMCs [1]; HGPS-iPSC SMC clone 1, arterial flow, Tipifarnib 1 μM, Lonafarnib 20 μM) does the source give for NC(=O)N1CCC(CC(=O)N2CCC([C@H]3c4ncc(Br)cc4CCc4cc(Cl)cc(Br)c43)CC2)CC1 [Lonafarnib] here?
A: able to decrease cellular detachment

Q: Which results are given for Cc1cc(CNC(=O)c2cc(C(=O)NCc3ccc(F)c(C)c3)ncn2)ccc1F [MMP-13 inhibitor, pyrimidine-4,6-dicarboxylic acid, bis-(4-fluoro-3-methyl-benzylamide)]?
A: HGPS-iPSC SMC detachment (HGPS-iPSC SMCs [1]): decreased significantly the detachment; detachment of HOZ mSMCs (HOZ mSMCs): significantly delayed

Q: For Cn1cncc1[C@@](N)(c1ccc(Cl)cc1)c1ccc2c(c1)c(-c1cccc(Cl)c1)cc(=O)n2C [Tipifarnib], which “cells accumulating nuclear prelamin A” value (HGPS-iPSC SMCs [2]) is on record?
A: approximately 95 % of the cells

Q: For O=P([O-])([O-])OP(=O)([O-])[O-].[Na+].[Na+].[Na+].[Na+] [sodium pyrophosphate], which SMC detachment (HGPS-iPSC SMCs [1]; calcification inhibition, sodium pyrophosphate 0.9 mM, arterial flow) is on record?
A: significant decreased in SMC detachment

From patent US20180000817A1, “TREATMENT OF HUTCHINSON-GILFORD PROGERIA SYNDROME AND DISEASES RELATED TO VASCULAR AGEING” (BIOCANT - ASSOCIAÇÃO DE TRANSFERÊNCIA DE TECNOLOGIA, priority 2015, published 2018)
